# Assay results published in ChEMBL document CHEMBL2074338, “Characterization of organic anion transport inhibitors using cells stably expressing human organic anion transporters” (Eur J Pharmacol, 2001).
# Molecular target: T1, Organic anion transporter 3 (Homo sapiens, UniProt Q8TCC7)
# T1 sequence (Q8TCC7 whole entry): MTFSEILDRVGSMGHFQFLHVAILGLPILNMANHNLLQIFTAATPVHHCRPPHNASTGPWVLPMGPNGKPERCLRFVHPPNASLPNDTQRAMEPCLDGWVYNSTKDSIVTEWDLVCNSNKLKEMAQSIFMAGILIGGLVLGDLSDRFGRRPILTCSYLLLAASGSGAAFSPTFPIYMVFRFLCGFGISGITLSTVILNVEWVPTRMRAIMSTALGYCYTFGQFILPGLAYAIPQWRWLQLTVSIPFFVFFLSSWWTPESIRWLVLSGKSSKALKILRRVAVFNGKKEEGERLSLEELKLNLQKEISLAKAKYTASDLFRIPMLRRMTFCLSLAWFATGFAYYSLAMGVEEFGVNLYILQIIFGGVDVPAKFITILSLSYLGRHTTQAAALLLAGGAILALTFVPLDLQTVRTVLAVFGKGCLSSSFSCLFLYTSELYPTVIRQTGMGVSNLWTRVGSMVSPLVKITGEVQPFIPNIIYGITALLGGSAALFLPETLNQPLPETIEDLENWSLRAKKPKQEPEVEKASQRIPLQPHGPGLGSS
# Assay: TP_TRANSPORTER: inhibition of E1S uptake in OAT3-expressing S2 cells
# Assay type: functional, cell-based
row,Ki [µM],Compound
1,48.3,O=C(O)CCNC(=O)c1ccccc1 [BETAMIPRON]
2,231,CC1(C)C[C@@H]1C(=O)N/C(=C\CCCCSC[C@H](N)C(=O)O)C(=O)O [CILASTATIN]
3,3.7,CCCn1c(=O)c2[nH]c(C34CC5CC(CC3C5)C4)nc2n(CCC)c1=O [ROLOFYLLINE]
